We go through three molecules from PubChem BioAssay (NCI).

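Five compound concentrations were applied to cells in 96-well plates for 48 hours; endpoints were derived by simple linear interpolation of the resulting dose-response curve. TGI marks complete inhibition of growth.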 A value given as a limit tells only on which side of the number the result lay.

Among the test systems are COLO 205 colon; SNB-75 CNS; HOP-62 NSCLC; DU-145 prostate; HL-60(TB) leukemia; NCI-H460 lung; MOLT-4 leukemia; HOP-92 NSCLC; HCT-116 colon; MDA-MB-435; OVCAR-5 ovarian; NCI/ADR-RES ovarian; BT-549 breast; HT29 colon; IGROV1 ovarian; MCF7 breast; RXF 393 renal; HS 578T breast; SW-620 colon; EKVX NSCLC.
What all share (assay): NCI tumour cell line growth inhibition, 48 h

With `C[C@H]1S[C@@H](c2ccc(Cl)cc2Cl)N(NC(=O)c2ccncc2)C1=O`, the TGI with COLO 205 colon, in the test on SNB-75 CNS, in the test with HOP-62 NSCLC, with DU-145 prostate, with HL-60(TB) leukemia and in the test on NCI-H460 lung was above 100 µM in each case. The TGI in the test with MOLT-4 leukemia, with HOP-92 NSCLC, in the test on HCT-116 colon, in the test with MDA-MB-435, in the test on OVCAR-5 ovarian and in the test with NCI/ADR-RES ovarian was above 100 µM throughout. Further, the TGI in the test on BT-549 breast, in the test with HT29 colon, in the test on IGROV1 ovarian, with MCF7 breast, in the test with RXF 393 renal and with HS 578T breast was above 100 µM in each case.
Consider `COC1/C=C/C(C)C(O)CC(O)/C=C/C(C)C(C(C)C(OC)C(C)CCC(=O)C(C)C(C/C=C/N(C)C=O)OC)OC(=O)/C=C/C=C(\C)CC(OC)CC2=CC(=O)O[C@@H](C(C)C(OC)C1)[C@H]2O` (some centres not stated), for which the TGI in the test with SW-620 colon turned out to be 0.267 µM; in the test on COLO 205 colon, 0.0885 µM; with SNB-75 CNS, 0.00586 µM; with HOP-62 NSCLC, 0.0257 µM; in the test on DU-145 prostate, 4.09 µM; in the test with HL-60(TB) leukemia, 0.252 µM. Also, the TGI was determined as 0.162 µM in the test on NCI-H460 lung; 28.2 µM in the test with MOLT-4 leukemia; 0.0106 µM with HOP-92 NSCLC; 0.00952 µM with HCT-116 colon; 0.906 µM in the test with MDA-MB-435; 0.228 µM in the test on OVCAR-5 ovarian. For the same molecule, the TGI is 1.5 µM with BT-549 breast; 0.741 µM with HT29 colon; 0.0689 µM in the test with IGROV1 ovarian; 0.0909 µM in the test on MCF7 breast; 0.0112 µM in the test with RXF 393 renal; 0.266 µM in the test on EKVX NSCLC. Moreover, the TGI in the test with HS 578T breast was 0.0493 µM.
`COc1nc(Cl)nc(N[C@H](C)c2c3ccccc3cc3ccccc23)n1`: the TGI with SW-620 colon was determined as 28.8 µM; in the test with COLO 205 colon, 28.1 µM; with SNB-75 CNS it was 76.4 µM; with HOP-62 NSCLC, 31.5 µM; with DU-145 prostate, 25 µM; in the test on HL-60(TB) leukemia, 58.8 µM. Further, the TGI with NCI-H460 lung is 33.9 µM; in the test on MOLT-4 leukemia, 40.1 µM; with HOP-92 NSCLC, 46.4 µM; in the test with HCT-116 colon, 24.8 µM; with MDA-MB-435, 15.1 µM; with OVCAR-5 ovarian it was 31.1 µM. The TGI is 31.3 µM with NCI/ADR-RES ovarian; 32.5 µM with BT-549 breast; 31.3 µM in the test with HT29 colon; 20.5 µM in the test on IGROV1 ovarian; 29.2 µM with MCF7 breast; 25.9 µM in the test with RXF 393 renal. In addition, the values for the TGI in the test with EKVX NSCLC and with HS 578T breast were 29.6 µM and 21.9 µM, respectively.
